Test results: US20250129127A1, “Systems for Amplification of AAV Rep and Cap Proteins” (priority 2022, published 2025)
Read-outs that look alike come from different tables or passages of the source.

Tests used:
AAV capsid = experiment: Capsid ELISA for total capsid titer after induction; format: cell-based; conditions: 1000 uM MSX; Fuji cell culture media lacking Gln; compared to T223 cells not exposed to MSX
Description: (§1) Capsid ELISA was performed to determine total capsid titer. Nuclease treatment and qPCR were performed to determine the titer of capsids encapsidating the viral genome (e.g., the payload construct). […] Fuij 7-2 cell media with 4 mM glutamax was used in the cell culture.

T223 cells = tested on: T223 cells
Description: FIG. 9 provides a schematic for GS repression/inhibition for the pathways described in FIG. 8. A GS-KO P2 cell line is independently transfected with the various Rep/Cap GS constructs (see above and FIG. 8). P3 cells are selected in cell culture media lacking glutamine (-Gln) to select for cells expressing a higher level of GS.

AAV viral genomes = experiment: Titer of capsids encapsidating the viral genome by nuclease treatment and qPCR after induction with doxycycline and tamoxifen; format: cell-based; conditions: 1000 uM MSX; Fuji cell culture media lacking Gln; compared to T223 cells not exposed to MSX
Description: as §1

Compound: CS(=N)(=O)CC[C@H](N)C(=O)O (some centres unmarked) [MSX, methionine sulfoximine]
- viral particles (Capsids/mL) in T223 cells (AAV capsid): increased levels
- MSX concentration from which survival is impacted (T223 cells; P3 T223 cells expressing wild type GS): ≥ 250 µM
- MSX concentration from which survival is impacted (T223 cells; T223 cells expressing full length GS, selective media): ≥ 250 µM
- reduction of viability (T223 cells; T223 cells, 500 uM MSX (of 50, 100, 250, 500 uM tested)): most effective in reducing viability
- viral genomes (vg/mL) in T223 cells (AAV viral genomes): increased levels
